Values after ≈ are worked out from the molar mass of the structure shown. Read-outs that look alike come from different tables or passages of the source.
Tests used:
partition coefficient = assay type: physicochemical
[1] = aqueous solubility (concentration at saturation); assay type: physicochemical; conditions: water, read-out: Conc. at Saturation

CN(CC(=O)OCc1ccccc1)C(=N)N [Creatine Benzyl Ester, creatine benzyl ester]
logP (partition coefficient): -0.975 | solubility [1]: 89.26 ± 0.8 mg/mL (≈ 403 mM)

CN(CC(=O)O)C(=N)N.O [creatine monohydrate, reference compound]
logP (partition coefficient; studies in the laboratory): -1.82 | flux over one hour (MDCK monolayers; MDCK monolayers, 60-minute period, share of the amount added that crossed to the other side): approximately 10%

CCOC(=O)CN(C)C(=N)N [Creatine Ethyl Ester, creatine ethyl ester]
logP (partition coefficient): -1.13 | solubility [1]: 205.9 ± 1.5 mg/mL (≈ 1290 mM) | flux over one hour (MDCK monolayers; MDCK): approximately 20%
